Assay results as given in patent publication US8530235B2, “Medium that supports culture of an oocyte and modulation of granulosa cell apoptosis” (Adelaide Research & Innovation Pty Ltd., priority 2005, dated 2013).

B1: BMP-7: Recombinant human BMP-7 obtained from R&D systems (protein, UniProt P18075 293-431, looked up)
Bone morphogenetic protein 7: STGSKQRSQNRSKTPKNQEALRMANVAENSSSDQRQACKKHELYVSFRDLGWQDWIIAPEGYAAYYCEGECAFPLNSYMNATNHAIVQTLVHFINPETVPKPCCAPTQLNAISVLYFDDSSNVILKKYRNMVVRACGCH

What was measured:
Smad2/3 = assay: CAGA-luciferase activity, activation of Smad2/3 (Example 21); type: cell-based
From the text: FIGS. 15A and 15B show the effect of various concentrations of the AlK4/5/7 inhibitor on TGF-β1 stimulated CAGA luciferase activity.

[1] = tested on: cumulus expansion of oocytectomised (OOX) complexes; assay: FSH-induced cumulus expansion score of OOX complexes; type: cell-based, mice; settings: OOX complexes
Procedure: Members of the TGF-β superfamily are prime candidates for the mouse cumulus expansion-enabling factor (CEEF). This study was conducted to examine TGF-β superfamily processes regulating cumulus expansion. COCs were collected from eGG-primed mice and the oocyte microsurgically removed to generate oocytectomised (OOX) complexes. […] The type-I receptors for GDF9 and […] are ALK5 and ALK4, respectively. We tested the ability of an ALK4/5/7 kinase inhibitor to neutralize cumulus expansion.

granulosa cell = assay: GDF-9 and oocyte-induced granulosa cell DNA synthesis (Example 21); type: cell-based
From the text: FIGS. 14A and 14B show the effect of an AlK4/5/7 inhibitor on either GDF-9, TGF-β1, or oocyte induced DNA synthesis (Panel A), and the effect of various concentrations of the inhibitor on GDF-9 and oocyte induced DNA synthesis (Panel B).

[2] = tested on: Smad 1-responsive BRE-luciferase reporter; assay: Smad 1-responsive BRE-luciferase reporter in mural granulosa cells from large antral follicles; type: cell-based, marmoset monkey, Callithrix jacchus; settings: 48 h; 0.5 ng/ml TGFβ1, 88-265 ng/ml GDF9, 50 ng/ml BMP7 or 60 mouse oocytes
Procedure: (§1) FIGS. 18A and 18B show the activation of the TGF-β signalling pathway by GDF9 and oocytes. MGC from large follicles were transiently transfected with either a Smad 3-responsive CAGA-luciferase reporter construct (A) or a Smad 1-responsive BRE-luciferase reporter construct (B). Cells were subsequently left untreated, treated with 0.5 ng/ml TGFβ1, 88-265 ng/ml GDF9, 50 ng/ml BMP7 or co-cultured with 60 mouse oocytes. Cells were cultured for 48 h after which time luciferase activity was measured from cell extracts. Bars represent means+/− SEM from 3 replicate experiments expressed as a fold change relative to control.
(§2) Luciferase reporter constructs responsive to specific phosphorylated Smads were used to detect the activation of mural GC Smad proteins by recombinant GDF9 Mural GCs were collected and processed as described above, except cells were given a final wash in DMEM(MP Biomedicals, Seven Hills, Australia)+2% FCS (Trace Biosciences, Castle Hill, Australia). Following the final wash, cells were transferred to individual wells of a 96-well plate (Falcon) and cultured at 1.6×10^5 cells/ml. After 4 hours of culture, cells were transiently transfected with 50 ng of luciferase reporter construct DNA using Fugene 6 (Roche Diagnostics, Castle Hill, Australia). 18 hours after transfection, medium was aspirated from cells and replaced with DMEM supplemented with 0.1% FCS. Various ligands were added to cells at this point (see below) and the culture period extended for a further 48 hours. Experiments were terminated by removing media from wells and freezing plates at −20° C. […]
(§3) Seven adult female marmosets were primed with […] for 6 days, whole ovaries were removed on day 7, follicles manually excised, and GC were then collected from 3 size classes: periantral (PA; 0.42-0.66 mm), small antral (SA; 0.66-1.5 mm) and large antral (LA; >1.5 mm). […] In order to determine the effects of GDF9 on marmoset GC proliferation, we employed a GC bioassay whereby after 24 h ^3H-thymidine incorporation is assessed as an indicator of DNA synthesis and cellular proliferation. […]

[3] = tested on: Smad 3-responsive CAGA-luciferase reporter; assay: Smad 3-responsive CAGA-luciferase reporter in mural granulosa cells from large antral follicles; type: cell-based, marmoset monkey, Callithrix jacchus; settings: 48 h; 0.5 ng/ml TGFβ1, 88-265 ng/ml GDF9, 50 ng/ml BMP7 or 60 mouse oocytes
Procedure: as §1, §2, §3

cumulus cells = assay: Cumulus cell apoptosis in oocytectomized complexes (OOX) and COC, TUNEL with confocal microscopy; type: cell-based, Bovine; settings: OOX treated with 100 ng/ml BMP-7 and/or 10% BMP-15
Procedure: Bovine ovaries were collected from local abattoir and transported to the laboratory in warm saline (30-35° C.). Cumulus-oocyte complexes (COC) were aspirated from antral follicles (2- to 8-mm diameter) using an 18-gauge needle and a 10-ml syringe containing ˜2 ml aspiration media (Hepes-buffered Tissue Cultured Medium-199: TCM-199, ICN Biochemicals, Irvine, Calif., USA) supplemented with 50 μg/ml kanamycin (Sigma-Aldrish, St. louis, Mo.), 4 mg/ml fatty acid-free bovine serum albumin (FAF-BSA) (ICPbio ltd, Auckland, NZ). Intact COC with compact cumulus vestment greater than five cell layers and evenly pigmented cytoplasm were selected under a dissecting microscope and washed twice in Hepes-buffered TCM-199 and once in corresponding culturing media.
The cytoplasm of each oocyte was microsurgically removed from the COC (oocytectomy) using a micromanipulator as described in Buccione et al (Buccione et al. (1990) Dev Biol 138, 16-25.). The resulting oocytectomized complex (OOX) consists of a hollow zona pellucida surrounded by several layers of intact CC.
Denuded oocytes (DO) were generated by removing CC from COC by vortexing for approximately 4 minutes in 2 ml H-TCM-199/BSA. Any remaining CC were removed by repeated passage of the oocytes through a fine-bore fire-polished glass pipette in H-TCM-199/BSA.
CC apoptoic DNA was detected using TUNEl (Roche Diagnostic, Penzberg, Germany) according to the manufacturer's instructions. Briefly, following culture COC and OOX complexes were washed twice in PBS (pH 7.4) containing 1% BSA, fixed in 4% paraformaldehyde in PBS (pH 7.4) overnight at 4° C. and washed twice with PBS/BSA before placing on Cell-Tak-coated coverslips (Beckton Dickinson Biosciences, Franklin lakes, N.J.). Complexes were then permeabilized in 0.11/u Triton X-100 in 0.1% sodium citrate for 1 hour at room temperature and washed 3 times in PBS/BSA. The complexes were then incubated in fluorescein-conjugated dUTP and terminal deoxynucleotide transferase (TUNEl reagents, Roche) for 1 hour at 37° C. in the dark. Positive controls were incubated in DNAse 1 (0.005 U/µl), which cleaves all DNA, for 20 minutes at room temperature and washed twice in PBS/BSA before TUNEl. Negative controls were incubated in fluorescein-dUTP in the absence of TdT. After TUNEl, complexes were washed twice in PBS/BSA and counterstained with propidium iodide 0.5 μg/ml (PI) plus RNase A (0.1 mg/ml) for 1 hour at room temperature in the dark to label all nuclei. Complexes were then washed twice in PBS/BSA and mounted with slight coverslip compression in VectaShield anti-bleaching solution (Vector labs, Burlingame, Calif.), and stored in the dark at 4° C. for confocal analysis.
Apoptosis in COC and OOX was visualised and quantified using confocal microscopy. Dual fluorescence emission from CC was detected using a Nikon C1 Confocal Scanning Head and a Nikon TE2000E microscope (Nikon, Tokyo, Japan). Simultaneous emission capture of the apoptotic signal (fluorescein, lacer excitation 488 nm, emission 510-530 nm) and the nuclear signal (propidium iodide, excitation lacer 532, emission 590-640 nm) was performed.
In order to generate an accurate representation of the overall apoptotic incidence for all complexes, the depth of each complex was measured through a Z series to divide the construct into three percentiles (optical Z plane sections) at 25%, 50% and 75%. These optical section images were acquired and saved as independent colour channels (green, apoptotic cumulus fluorescence and red, nuclear cumulus fluorescence). The captured images were then processed in Scanalytics IPlab software Version 3.6. (Scanalytics, Fairfax, Va.). Quantification of CC number (for each colour channel) was independently measured using a macro script utilizing an auto segmentation filter for each optical section percentile (3 optical “z”-plane sections for each complex).

| Molecule | TGF-β1, GDF9 and oocyte-stimulated activation of Smad2/3 molecules (CAGA-luciferase activity) with inhibitor (Smad2/3) | GDF-9 and oocyte-induced cumulus expansion with inhibitor [1] | GDF-9 and oocyte-induced granulosa cell DNA synthesis with inhibitor (granulosa cell) | BRE-luciferase activity compared to control levels [2] | CAGA-luciferase activity above control levels [3] | effect on cumulus cell apoptosis (cumulus cells) |
| --- | --- | --- | --- | --- | --- | --- |
| NC(=O)c1ccc(-c2nc(-c3ccccn3)c(-c3ccc4c(c3)OCO4)[nH]2)cc1 [ALK4/5/7 kinase inhibitor] | completely abrogated | completely neutralised | completely abrogated |  |  |  |
| TGF-β1: Transforming growth factor beta 1 [reference compound] |  |  |  | not activated | 19 fold |  |
| B1 |  |  |  | 31 fold | not stimulated | significantly reduced |
